Data: patent US7365064B2, “Benzoxazine and benzothiazine derivatives and pharmaceutical compositions containing them” (Dr. Reddy's Laboratories Limited, priority 2001, dated 2008)
Structures can show the parent of a compound that is named as a salt.

Tests used:
hPPARα = biological target: T1, hPPARα (Homo sapiens, UniProt Q07869); assay: Determination of hPPARα activity (GAL4 fusion luciferase reporter in HEK-293 cells); format: cell-based; conditions: compound concentration 50 μM
T1 construct: expressed in transfected cells; host or cells: HEK-293
T1 sequence (Q07869 239-466 limits assumed): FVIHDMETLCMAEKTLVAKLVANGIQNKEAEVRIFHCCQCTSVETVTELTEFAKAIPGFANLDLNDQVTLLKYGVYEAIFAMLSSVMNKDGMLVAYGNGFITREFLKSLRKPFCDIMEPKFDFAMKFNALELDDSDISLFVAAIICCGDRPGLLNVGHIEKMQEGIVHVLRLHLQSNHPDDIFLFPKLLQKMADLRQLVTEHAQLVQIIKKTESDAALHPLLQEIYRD
Description: a) Determination of hPPARα Activity
Ligand binding domain of hPPARα was fused to DNA binding domain of Yeast transcription factor Gal 4 in eucaryotic expression vector. Using superfect (Qiagen, Germany) as transfecting reagent HEK-293 cells are transfected with this plasmid and a reporter plasmid harboring the luciferace gene driven by a GAL4 specific promoter. Compound can be added at different concentrations after 42 hrs of transfection and incubated overnight. Luiciferase activity as a function of compound binding/activation capacity of PPARα will be measured using Packard Luclite kit (Packard, USA) in Top Count (Ivan Sadowsi, Brendan Bell, Peter Broag and Melvyn Hollis. Gene. 1992. 118: 137-141; Superfect Transfetion Reagent Handbook February 1997. Qiagen, Germany.

[1] = test system: hypercholesterolemic Sprague Dawley rats; assay: Plasma triglyceride and cholesterol lowering activity in hypercholesterolemic rat models; format: in vivo; conditions: 10 mg/kg orally for 3 days; for HDL (%) ↑: increase; for Total Cholesterol (%) ↓ / Triglyceride (%) ↓ / LDL (%) ↓ / VLDL (%) ↓: reduction; for LDL (%) ↓: LDL calculated from total cholesterol; for LDL (%) ↓ / VLDL (%) ↓: HDL and triglyceride; for VLDL (%) ↓: VLDL calculated from total cholesterol
Description: b) Plasma Triglyceride and Cholesterol Lowering Activity in Hypercholesterolemic Rat Models
Male Sprague Dawley rats (NIN stock) were bred in DRF animal house. Animals were maintained under 12 hour light and dark cycle at 25±1° C. Rats of 180-200 gram body weight range were used for the experiment. Animals are made hypercholesterolemic by feeding 2% cholesterol and 1% sodium cholate mixed with standard laboratory chow [National Institute of Nutrition (NIN), Hyderabad, India] […] for 6 days. Throughout the experimental period the animals were maintained on the same diet (Petit, D., Bonnefis, M. T., Rey, C and Infante, R. Effects of ciprofibrate on liver lipids and lipoprotein synthesis in normo- and hyperlipidemic rats. Atherosclerosis. 1988. 74 : 215-225).
The test compounds can be administered orally at a dose 0.1 to 30 mg/kg/day for 3 days. Control group was treated with vehicle alone (0.25% Carboxymethylcellulose; dose 10 ml/kg).
The blood samples were collected in fed state 1 hour after drug administration on 0 and 3 day of compound treatment. The blood was collected from the retro-orbital sinus through heparinsed capillary in EDTA containing tubes. After centrifugation, plasma sample was separated for total cholesterol, HDL and triglyceride estimations. Measurement of plasma, triglyceride, total cholesterol and HDL are were done using commercial kits (Dr. Reddy's Laboratory, Diagnostic Division, India). LDL and VLDL cholesterol were calculated from the data obtained for total cholesterol, HDL and triglyceride. The reduction of various parameters examined are calculated according to the formula.
(§1) 1. Percent reduction in Blood sugar/triglycerides/total cholesterol will be calculated according to the formula:
(§2) [formula] • OC=Zero day control group value • OT=Zero day treated group value • TC=Test day control group value • TT=Test day treated group value
2. LDL and VLDL cholesterol levels will be calculated according to the formula:
[formula] VLDL cholesterol in mg/dl=[Total cholesterol−HDL cholesterol−LDL cholesterol]mg/dl.

Swiss albino mice = assay: Plasma triglyceride and total cholesterol lowering activity in Swiss albino mice and guinea pigs; format: in vivo; conditions: 10 mg/kg orally for 6 days; species not named
Description: c) Plasma Triglyceride and Total Cholesterol Lowering Activity in Swiss Albino Mice and Gunie Pigs
Male Swiss albino mice (SAM) and male Guinea pigs were obtained from NIN and housed in DRF animal house. All these animals are maintained under 12 hour light and dark cycle at 25±1° C. Animals were given standard laboratory chow (NIN, Hyderabad, India) and water, ad libitum. SAM of 20-25 g body weight range and Guinea pigs of 500-760 g body weight range are used (Oliver, P., Plancke, M. O., Marzin, D., Clavey, V., Sauzieres, J and Fruchatt, J. C. Effects of fenofibrate, gemfibrozil and nicotinic acid on plasma lipoprotein levels in normal and hyperlipidemic mice. Atherosclerosis. 1988. 70 : 107-114).
The test compounds were administered orally to Swiss albino mice at 0.3 to 30 mg/kg/day dose for 6 days. Control mice are treated with vehicle (0.25% Carboxymethylcellulose; dose 10 ml/kg). The test compounds are administered orally to Guinea pigs at 0.3 to 30 mg/kg/day dose for 6 days. Control animals are treated with vehicle (0.25% Carboxymethylcellulose; dose 5 ml/kg).
The blood samples were collected in fed state 1 hour after drug administration on 0 and 6 day of treatment The blood was collected from the retro-orbital sinus through heparinised capillary in EDTA containing tubes. After centrifugation, plasma sample was separated for triglyceride and total cholesterol (Wieland, O. Methods of Enzymatic analysis. Bergermeyer, H. O., Ed., 1963. 211-214; Trinder, P. Ann. Clin. Biochem. 1969. 6: 24-27). Measurement of plasma triglyceride were done using commercial kits (Dr. Reddy's Diagnostic Division, Hyderabad, India).
as §1, §2

hPPARγ = biological target: T2, hPPARγ (Homo sapiens, UniProt P37231); assay: Determination of hPPARγ activity (GAL4 fusion luciferase reporter in HEK-293 cells); format: cell-based; conditions: compound concentration 1 μM
T2 construct: expressed in transfected cells; host or cells: HEK-293
T2 sequence (P37231 238-503 limits assumed): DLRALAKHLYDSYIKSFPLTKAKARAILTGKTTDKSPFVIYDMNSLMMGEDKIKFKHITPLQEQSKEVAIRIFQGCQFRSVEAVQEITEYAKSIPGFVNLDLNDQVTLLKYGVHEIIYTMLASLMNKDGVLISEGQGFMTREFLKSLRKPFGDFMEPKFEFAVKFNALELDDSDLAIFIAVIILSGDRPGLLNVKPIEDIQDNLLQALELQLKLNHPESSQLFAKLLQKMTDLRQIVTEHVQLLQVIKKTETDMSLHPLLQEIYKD
Description: b) Determination of hPPARγ Activity
Ligand binding domain of hPPARγ is fused to DNA binding domain of Yeast transcription factor GAL4 in eucaryotic expression vector. Using lipofectamine (Gibco BRL, USA) as transfecting reagent HEK-293 cells are transfected with this plasmid and a reporter plasmid harboring the luciferase gene driven by a GAL4 specific promoter. Compound can be added at 1 μM concentration after 48 hrs of transfection and incubated overnight Luciferase activity as a function of drug binding/activation capacity of PPARγ1 will be measured using Packard Luclite kit (Packard, USA) in Packard Top Cout (Ivan Sadowski, Brendan Bell, Peter Broag and Melvyn Hollis. Gene. 1992. 118: 137-141; Guide to Eukaryotic Transfections with Cationic Lipid Reagents. Life Technologies, GIBCO BRL, USA).

C57BL/KsJ-db/db mice = assay: Blood sugar and triglyceride lowering in db/db mice; format: in vivo; conditions: 3 mg/kg oral gavage daily for 6 days
Description: Mutation in colonies of laboratory animals and different sensitivities to dietary regimens have made the development of animal models with non-insulin dependent diabetes and hyperlipidemia associated with obesity and insulin resistance possible. Genetic models such as db/db and ob/ob (Diabetes, (1982) 31(1): 1-6) mice and zucker fa/fa rats have been developed by the various laboratories for understanding the pathophysiology of disease and testing the efficacy of new antidiabetic compounds (Diabetes, (1983) 32: 830-838; Annu. Rep. Sankyo Res. Lab. (1994). 46: 1-57). The homozygous animals, C57 BL/KsJ-db/db mice developed by Jackson Laboratory, US, are obese, hyperglycemic, hyperinsulinemic and insulin resistant (J. Clin. Invest., (1990) 85 : 962-967), whereas heterozygous are lean and normoglycemic. In db/db model, mouse progressively develops insulinopenia with age, a feature commonly observed in late stages of human type II diabetes when blood sugar levels are insufficiently controlled. The state of pancreas and its course vary according to the models. Since this model resembles that of type II diabetes mellitus, the compounds of the present invention will be tested for blood sugar and triglycerides lowering activities.
Male C57BL/KsJ-db/db mice of 8 to 14 weeks age, having body weight range of 35 to 60 grams, bred at Dr. Reddy's Research Foundation (DRF) animal house, were used in the experiment. The mice are provided with standard feed (National Institute of Nutrition (NIN), Hyderabad, India) and acidified water, ad libitum. The animals having more than 350 mg/dl blood sugar will be used for testing. The number of animals in each group was 4.
Test compounds are suspended on 0.25% carboxymethyl cellulose and administered to test group at a dose of 0.1 mg to 30 mg/kg through oral gavage daily for 6 days. The control group receives vehicle (dose 10 ml/kg). On 6th day the blood samples will be collected one hour after administration of test compounds/vehicle for assessing the biological activity.
The random blood sugar and triglyceride levels can be measured by collecting blood (100 μl) through orbital sinus, using heparinised capillary in tubes containing EDTA which was centrifuged to obtain plasma. The plasma glucose and triglyceride levels can be measured spectrometrically, by glucose oxidase and glycerol-3-PO4 oxidase/peroxidse enzyme (Dr. Reddy's Lab. Diagnostic Division Kits, Hyderabad, India) methods respectively.
The blood sugar and triglycerides lowering activities of the test compound are calculated according to the formula.
1. Percent reduction in Blood sugar/triglycerides/total cholesterol will be calculated according to the formula: […]

Compound: CCOC(Cc1ccc(NCCCN2CCOc3ccccc32)cc1)C(=O)O (stereo not shown) [Example 3, 3-[4-{3-(3,4-Dihydro-2H-benzo[b][1,4]oxazin-4-yl)propylamino}phenyl]-2-ethoxypropanoic acid arginine salt]
- PPARα (hPPARα): 4.7
- HDL (%) ↑ [1]: 254%
- Total Cholesterol (%) ↓ [1]: 69%
- Triglyceride (%) ↓ [1]: 77%
- LDL (%) ↓ [1]: 80%
- VLDL (%) ↓ [1]: 77%
- Triglyceride Lowering (%) (Swiss albino mice): 70%
- PPARγ (hPPARγ): 3.0
- Reduction in Blood Glucose Level (%) (C57BL/KsJ-db/db mice): 33%
- Triglyceride Lowering (%) (C57BL/KsJ-db/db mice): 29%

Compound: CCCCCCCN(CCN1C(=O)COc2ccccc21)c1ccc(CC(OCC)C(=O)O)cc1 (stereo not shown) [Example 6, 3-[4-N-Heptyl-N-{2-(3-oxo-3,4-dihydro-2H-benzo[b][1,4]oxazin-4-yl)ethylamino}phenyl]-2-ethoxypropanoic acid arginine salt]
- Triglyceride Lowering (%) (Swiss albino mice): 27%

Compound: CCCCCCCN(CC(=O)N1CCOc2ccccc21)Cc1ccc(CC(OCC)C(=O)O)cc1 (stereo not shown) [Example 9, 2-Ethoxy-3-[4-{N-heptyl-N-(2-(3,4-dihydro-2H-benzo[b]oxazin-4-yl)-2-oxoethyl)aminomethyl}phenyl]propanoic acid arginine salt]
- PPARα (hPPARα): 4.6
- PPARγ (hPPARγ): 6.2

Compound: CCOC(Cc1cccc(NCCCN2CCOc3ccccc32)c1)C(=O)O (stereo not shown) [Example 15, 3-[3-{3-(3,4-Dihydro-2H-benzo[b][1,4]oxazin-4-yl)propylamino}phenyl]-2-ethoxypropanoic acid arginine salt]
- Triglyceride Lowering (%) (Swiss albino mice): 43%

Compound: CCOC(Cc1ccc(NCCCN2CCOc3cc(F)ccc32)cc1)C(=O)O (stereo not shown) [Example 18, 3-[4-{3-(7-Fluoro-3,4-dihydro-2H-benzo[b][1,4]oxazin-4-yl)propylamino}phenyl]-2-ethoxypropanoic acid arginine salt]
- PPARα (hPPARα): 4.4
- HDL (%) ↑ [1]: 260%
- Total Cholesterol (%) ↓ [1]: 64%
- Triglyceride (%) ↓ [1]: 77%
- LDL (%) ↓ [1]: 74%
- VLDL (%) ↓ [1]: 77%
- Triglyceride Lowering (%) (Swiss albino mice): 61%
- PPARγ (hPPARγ): 1.2
- Reduction in Blood Glucose Level (%) (C57BL/KsJ-db/db mice): 16%
- Triglyceride Lowering (%) (C57BL/KsJ-db/db mice): 35%

Compound: CCOC(Cc1ccc(NCc2ccc(OCCCN3CCOc4ccccc43)cc2)cc1)C(=O)O (stereo not shown) [Example 23, 2-Ethoxy-3-[4-{4-(3-(3,4-dihydro-2H-benzo[b][1,4]oxazin-4-yl)propyloxy)benzyl}aminophehyl]propanoic acid arginine salt]
- PPARα (hPPARα): 4.2
- PPARγ (hPPARγ): 4.4

Compound: CCOC(Cc1ccc(NCCCN2CCSc3ccccc32)cc1)C(=O)O (stereo not shown) [Example 27, 2-Ethoxy-3-[4-{3-3,4-dihydro-2H-benzo[b][1,4]thiazin-4-yl)propylamino}phenyl]propanoic acid arginine salt]
- PPARα (hPPARα): 4.3
- PPARγ (hPPARγ): 3.5
